Laboratory results taken from ChEMBL document CHEMBL3885861, “Open TG-GATES”.

Species on record: Rattus norvegicus
Assay: Open TG-GATES - Regimen: Daily Repeat
Type: toxicity, organism-based, Sprague-Dawley
Set-up: regimen Daily Repeat, gender Male, age 6 weeks
Details: in vivo, po, 100 mg/kg, route gavage, dose level Low; for APTT / Bas / Eos / Fbg / Hb / Ht / Lym / MCH / MCHC / MCV / Mono / Neu / PT / Plat / RBC / Ret / WBC: tissue Blood; for KIDNEY_L / KIDNEY_R / KIDNEY_TOTAL: tissue Kidney; for LIVER: tissue Liver; for A/G / ALP / ALT / AST / BUN / CRE / Ca / Cl / DBIL / GLC / IP / K / LDH / Na / PL / RALB / TBIL / TC / TG / TP / gamma-GTP: tissue Plasma

## CCOC(=O)CCC(=O)O[C@H]1[C@H](O[C@@H]2[C@@H](C)[C@H](O[C@H]3C[C@@](C)(OC)[C@@H](O)[C@H](C)O3)[C@@H](C)C(=O)O[C@H](CC)[C@@](C)(O)[C@H](O)[C@@H](C)C(=O)[C@H](C)C[C@@]2(C)O)O[C@H](C)C[C@@H]1N(C)C [ERYTHROMYCIN ETHYLSUCCINATE]
72 h, time 3 day
  TERMINAL_BW: 235.5 g
  APTT: 21.4 s
  Bas: 0%
  Eos: 1%
  Fbg: 324.6 mg/dL
  Hb: 13.4 g/dL
  Ht: 39.4%
  Lym: 83.4%
  MCH: 20.7 pg
  MCHC: 33.9%
  MCV: 61.1 fL
  Mono: 3%
  Neu: 11.6%
  PT: 15.9 s
  Plat: 120.2 x10_4/uL
  RBC: 645.4 x10_4/ul
  Ret: 4.9%
  WBC: 101.8 x10_2/uL
  KIDNEY_L: 1 g
  KIDNEY_R: 1 g
  KIDNEY_TOTAL: 2 g
  LIVER: 10.5 g
  A/G: 1.2
  ALP: 1729.8 IU/L
  ALT: 44.4 IU/L
  AST: 77.2 IU/L
  BUN: 18 mg/dL
  CRE: 0.1 mg/dL
  Ca: 10.3 mg/dL
  Cl: 107.2 meq/L
  DBIL: 0 mg/dL
  GLC: 187.2 mg/dL
  IP: 7.1 mg/dL
  K: 4.4 meq/L
  LDH: 179.8 IU/L
  Na: 141.4 meq/L
  PL: 130 mg/dL
  RALB: 3 g/dL
  TBIL: 0.024 mg/dL
  TC: 69.2 mg/dL
  TG: 72.2 mg/dL
  TP: 5.5 g/dL
  gamma-GTP: 1.2 IU/L
[…], time 7 day
  TERMINAL_BW: 255.3 g
  APTT: 21.7 s
  Bas: 0%
  Eos: 0.8%
  Fbg: 311.8 mg/dL
  Hb: 13.6 g/dL
  Ht: 40%
  Lym: 84.6%
  MCH: 20.4 pg
  MCHC: 33.9%
  MCV: 60.1 fL
  Mono: 2.2%
  Neu: 11.4%
  PT: 16.8 s
  Plat: 107.9 x10_4/uL
  RBC: 667.2 x10_4/ul
  Ret: 5.3%
  WBC: 77.9 x10_2/uL
  KIDNEY_L: 1.1 g
  KIDNEY_R: 1.1 g
  KIDNEY_TOTAL: 2.2 g
  LIVER: 11.1 g
  A/G: 1.1
  ALP: 1592.6 IU/L
  ALT: 36.4 IU/L
  AST: 64.6 IU/L
  BUN: 18.4 mg/dL
  CRE: 0.2 mg/dL
  Ca: 10.5 mg/dL
  Cl: 108.2 meq/L
  DBIL: 0 mg/dL
  GLC: 194.2 mg/dL
  IP: 7 mg/dL
  K: 4.2 meq/L
  LDH: 129 IU/L
  Na: 141.2 meq/L
  PL: 135.8 mg/dL
  RALB: 2.9 g/dL
  TBIL: 0 mg/dL
  TC: 68.6 mg/dL
  TG: 111.4 mg/dL
  TP: 5.5 g/dL
  gamma-GTP: 1.6 IU/L
[…], time 14 day
  TERMINAL_BW: 320.9 g
  APTT: 20.2 s
  Bas: 0%
  Eos: 1.2%
  Fbg: 338 mg/dL
  Hb: 13.8 g/dL
  Ht: 39.8%
  Lym: 82%
  MCH: 20.6 pg
  MCHC: 34.9%
  MCV: 59.1 fL
  Mono: 2.2%
  Neu: 13.8%
  PT: 16.3 s
  Plat: 113.3 x10_4/uL
  RBC: 673.2 x10_4/ul
  Ret: 4.7%
  WBC: 110.5 x10_2/uL
  KIDNEY_L: 1.2 g
  KIDNEY_R: 1.3 g
  KIDNEY_TOTAL: 2.5 g
  LIVER: 13.3 g
  A/G: 1.2
  ALP: 1442.8 IU/L
  ALT: 36.8 IU/L
  AST: 66 IU/L
  BUN: 20.2 mg/dL
  CRE: 0.2 mg/dL
  Ca: 10.7 mg/dL
  Cl: 107.2 meq/L
  DBIL: 0 mg/dL
  GLC: 196.8 mg/dL
  IP: 6.8 mg/dL
  K: 4.4 meq/L
  LDH: 150 IU/L
  Na: 142.2 meq/L
  PL: 150.2 mg/dL
  RALB: 3.1 g/dL
  TBIL: 0.005 mg/dL
  TC: 79 mg/dL
  TG: 102 mg/dL
  TP: 5.7 g/dL
  gamma-GTP: 2.2 IU/L
[…], time 28 day
  TERMINAL_BW: 401.9 g
  APTT: 23.6 s
  Bas: 0%
  Eos: 1.2%
  Fbg: 339 mg/dL
  Hb: 15.1 g/dL
  Ht: 43.9%
  Lym: 86%
  MCH: 19.6 pg
  MCHC: 34.5%
  MCV: 56.8 fL
  Mono: 2%
  Neu: 9.4%
  PT: 16 s
  Plat: 107.2 x10_4/uL
  RBC: 772.2 x10_4/ul
  Ret: 2.7%
  WBC: 102.2 x10_2/uL
  KIDNEY_L: 1.4 g
  KIDNEY_R: 1.4 g
  KIDNEY_TOTAL: 2.9 g
  LIVER: 16.2 g
  A/G: 1.2
  ALP: 1003.2 IU/L
  ALT: 37.8 IU/L
  AST: 59.2 IU/L
  BUN: 19.2 mg/dL
  CRE: 0.2 mg/dL
  Ca: 10.3 mg/dL
  Cl: 106.4 meq/L
  DBIL: 0 mg/dL
  GLC: 194.4 mg/dL
  IP: 6.9 mg/dL
  K: 4.1 meq/L
  LDH: 114 IU/L
  Na: 141.8 meq/L
  PL: 152 mg/dL
  RALB: 3.1 g/dL
  TBIL: 0.006 mg/dL
  TC: 78.8 mg/dL
  TG: 127.4 mg/dL
  TP: 5.9 g/dL
  gamma-GTP: 2.2 IU/L
